For data set [1] the following is noted: man, 3-5 hrs after oral ingestion of a single 4 g dose; cited from earlier work.
The test system of data set [2] is cocultures of cortical neurons and glia. Put plainly: Fe2+-induced free radical neuronal death (LDH). Type of data set: cell-based, mouse. Conditions: 50 μM Fe2+; 30-300 μM sulfasalazine concurrent. As for the experimental part:
FIG. 6 is a graph plotting a dose-response effect of sulfasalazine against neuronal death following 24 hr-exposure to 50 μM Fe^2+. […] Neuronal death was assessed 24 hr later by measurement of LDH released into the bathing medium, means ± S.E.M. (n=4 12 culture wells per condition). Asterisk indicates significant difference from relevant control (Fe^2+ alone) at ρ<0.05, using ANOVA and Student-Neuman-Keuls' test.
(§1) Primary cortical cell cultrues from embryonic mice were prepared and used to examine neuroprotective action of compounds. Mouse cortical cell culture system has been extensively used to study mechanisms and pharmacological intervention of neuronal death in neurological diseases. In brief, mouse cerebral coritces were removed from brains of the 15 day—old—fetal mice, in accordance with a protocol approved by our institutional animal care committee. The neocortices were gently triturated and plated on 24 well plates (5 hemispheres/plate) precoated with 100 μg/ml poly-D-lysine and 4 μg/ml laminine. […]
(§2) Overall cell injury was assessed microscopically under phase-contrast optics or by measuring amount of lactate dehydrogenase (LDH) released into the bathing medium 24 hr after neurotoxic insults as previously described (Koh and Choi, J Neurosci Methods 20:83-90, 1987). […]

The subject of data set [3] is cortical cell cultures. Put plainly: Zn2+ neurotoxicity (LDH). The class given is cell-based, mouse. The following applies: 300 μM Zn2+ for 30 min; 10-100 μM sulfasalazine concurrent. The procedure:
FIG. 9 is a graph plotting a dose-response effect of sulfasalazine against neuronal death 24 hr following exposure to 300 μM Zn^2+ for 30 min. Cortical cell cultures were exposed to 30-500 μM Zn^2+ for 30 min, alone (filled circles) or with inclusion of 100 μM sulfasalazine (open circles). Neuronal death was assessed 24 hr later by measurement of LDH released into the bathing medium, mean ± SEM (n=8 culture wells per condition). Asterisk indicates significant difference from relevant control (Zn^2+ alone) at ρ<0.05, using ANOVA and Student-Neuman-Keuls' test.
(§3) Primary cortical cell cultrues from embryonic mice were prepared and used to examine neuroprotective action of compounds. Mouse cortical cell culture system has been extensively used to study mechanisms and pharmacological intervention of neuronal death in neurological diseases. In brief, mouse cerebral coritces were removed from brains of the 15 day—old—fetal mice, in accordance with a protocol approved by our institutional animal care committee. […]
as §2

Data set [4] has as its system cortical cell cultures. Put plainly: Zn2+ entry into cortical cells (TSQ fluorescence). The class given is cell-based, mouse. As for the experimental part: FIG. 10 is a graph plotting effects of sulfasalazine reducing Zn^2 entry into cortical cells. Sister cultures were exposed to 300 μM Zn^2+ for 30 min, alone or with inclusion of 30-300 μM sulfasalazine. Zn^2+ entry was assessed 30 min later by measuring fluorescence intensity of TSQ, a Zn^2+ chelating agent. (n=8 culture wells per condition). Asterisk indicates significant difference from relevant control (Zn^2 alone) at ρ<0.05, using ANOVA and Student-Neuman-Keuls' test.
as §3
Entry and accumulation of Zn^2+ into neurons were analyzed using TSQ (N-(6-methoxy-8-quinolyl)-p-toluene sulfonamide), a membrane-permeable Zn^2+-chelating dye (Weiss J H, Hartley D M, Koh J Y, Choi D W, 1993, Neuron, 10:43-49). Cultures were incubated in HCSS containing 0.01% TSQ for 5 min, observed under fluorescence microscopy with a UV filter (excitation 365 nm, dichroic 400 nm, barrier 450 nm), and the intensity of TSQ was analyzed using a fluorescence plate reader.

Data set [5] deals with cocultures of cortical neurons and glia. Put plainly: BSO-induced free radical neuronal death (LDH). The class given is cell-based, mouse. Conditions: 10 mM BSO; 30-300 μM sulfasalazine concurrent. The procedure:
FIG. 7 is a graph plotting a dose-response effect of sulfasalazine against neuronal death following 24 hr-exposure to 10 mM BSO. Cortical cell cultures (DIV 12-14) were exposed to 10 mM L-buthionine-(S,R)-sulfoximine (BSO), alone or with 30-300 μM sulfasalazine. Neuronal death was assessed 24 hr later by measurement of LDH released into the bathing medium, mean ± SEM (n=8 culture wells per condition). Asterisk indicates significant difference from relevant control (BSO alone) at ρ<0.05, using ANOVA and Student-Neuman-Keuls' test.
as §1, §2

Data set [6] concerns cortical cell cultures. Put plainly: NMDA-induced 45Ca2+ uptake. The class given is cell-based, mouse. Conditions: for 45Ca2+ influx after NMDA: 300 μM NMDA, 10 min. As for the experimental part: FIG. 5 is a graph plotting effects of sulfasalazine against NMDA-induced ^45Ca^2+ uptake. Cortical cell cultrues (DIV 12-14) were exposed to a sham wash (control) or 300 μM NMDA, alone or in the presence of 30-1000 μM sulfasalazine. Ca^2+ influx was analyzed 10 min later by measuring ^45Ca^2+ influx, mean ± S.E.M. (n=12 cultures per condition). Asterisk indicates significant difference from relevant control (NMDA alone), at ρ<0.05 using ANOVA and Student-Neuman-Keuls' test.
Primary cortical cell cultrues from embryonic mice were prepared and used to examine neuroprotective action of compounds. Mouse cortical cell culture system has been extensively used to study mechanisms and pharmacological intervention of neuronal death in neurological diseases. In brief, mouse cerebral coritces were removed from brains of the 15 day—old—fetal mice, in accordance with a protocol approved by our institutional animal care committee. The neocortices were gently triturated and plated on 24 well plates (5 hemispheres/plate) precoated with 100 μg/ml poly-D-lysine and 4 μg/ml laminine. Plating media consist of Eagles minimal essential media (MEM, Earles salts, supplied glutamine-free) supplemented with 5% horse serum, 5% fetal bovine serum, 2 mM glutamine, and 21 mM glucose. Cultures were maintained at 37° C. in a humidified 5% CO2 atmosphere. After 7 days in vitro (DIV 7), cultures were shifted into a growth medium identical to the plating medium but lacking fetal serum. At DIV 7-9, […] cytosine arabinofuranoside was included to halt overgrowth of glia. Mixed cultures of neurons and glia were then fed twice a week.
To analyze Ca^2+ uptake, cortical cell cultures (DIV 13-14) were added with 300 μM NMDA and 1.5 μCi ^45Ca^2+ for 10 min, washed thoroughly with HCSS, and lysed in 0.2% SDS. Levels of ^45Ca^2+ in the lysates were read in a Beckman Scintillation counter.

The test system of data set [7] is cortical cell cultures. Put plainly: Neuronal death after oxygen and glucose deprivation (LDH). The class given is cell-based, mouse. Conditions: 300 μM sulfasalazine. As for the experimental part:
FIG. 11 is a graph plotting neuroprotective effects of sulfasalazine against deprivation of oxygen and glucose. Cortical cell cultures (DIV 14) were deprived of oxygen and glucose (OGD) for 45, 60 or 90 min, alone (black bars) or with inclusion of 300 μM sulfasalazine (gray bars). Neuronal death was assessed 24 hr later by measurement of LDH released into the bathing medium, mean ± SEM (n=4 culture wells per condition). Asterisk indicates significant difference from relevant control (OGD alone) at ρ<0.05, using ANOVA and Student-Neuman-Keuls' test.
Primary cortical cell cultrues from embryonic mice were prepared and used to examine neuroprotective action of compounds. Mouse cortical cell culture system has been extensively used to study mechanisms and pharmacological intervention of neuronal death in neurological diseases. […]
Oxygen or glucose deprivation: cortical cell cultures (DIV 15-17) were transferred to an anacrobic chamber containing 5% CO2, 10% H2, and 85% N2 as described before (Gwag B J, Lobner D, Koh J Y, Wie M B, and Choi D W, 1995, Neuroscience, 68:615-619). […] Neuronal injury was quantified 24 hr later.
as §2

Data set [8] has as its system cortical neurons. Put plainly: NMDA-induced accumulation of intracellular free Ca2+ (fluo-3). The class given is cell-based, mouse. The following applies: 300 μM NMDA; 300 μM sulfasalazine. The procedure: FIG. 4 is a graph plotting effects of sulfasalazine against NMDA-induced accumulation of intracellular free Ca^2+. […] [Ca^2+], was analyzed in fluo-3-loaded neutrons immediately after treatment, mean ± S.E.M. (n÷55−94 randomly chosen neurons in 4-6 glass bottom dishes per condition), scaled to [Ca^2+], after the sham control (÷100%). Asterisk indicates significant difference from relevant control (NMDA alone), at ρ<0.05 using ANOVA and Student-Neuman-Keuls' test.
as §1
Levels of intracellular free Ca^2+ ([Ca^2+]i) were analyzed using a Ca^2+ sensitive indicator flou-3 under a fluorescence microphotometry (Minta A. Kao J P. Tsien R Y. 1989, J Bio Chem. 264:8171-8178). […] The fluroescence images were analyzed using a QuantiCell 700 system (Applied Imaging, England).

Data set [9] relates to cortical cell cultures. Put plainly: Fe2+-induced production of reactive oxygen species (DCDHF fluorescence). The class given is cell-based, mouse. As for the experimental part: FIG. 8 is a graph plotting effects of sulfasalazine against Fe^2+-induced production of reactive oxygen species. Cortical cell cultures (DIV 13-14) were exposed to a sham wash (control) or 50 μM Fe^2+, alone or with 100 μM sulfasalazine for the indicated points of time. Levels of ROS in neurons were analyzed by monitoring the fluorescent signal of oxidized DCDHF, mean ± S.E.M. (n=53−80 neurons randomly chosen under a phase-contrast optic). Asterisk indicates significant difference from the relevant control (Fe^2+ alone in each time point) at ρ<0.05 using ANOVA and Student-Neuman-Keuls' test.
Primary cortical cell cultrues from embryonic mice were prepared and used to examine neuroprotective action of compounds. […]
To analyze reactive oxygen species in cortical cells, cortical cultures were loaded with 10 μM 6-carboxy-2′,7′-dichlorodihydrofluorescein diacetate (DCDHF-DA) plus 2% Pluronic F-127 in HCSS solution containing (120 mM NaCl, 5 mM KCl, 1.6 mM MgCl2, 2.3 mM CaCl2, 15 mM Glucose, 20 mM HEPES, 10 mM NaOH) for 20 minutes at 37° C., washed three times with HCSS solution, and the fluorescence signal of DCF (Ex 1=488 nm, Em 1=510 nm), the oxidation product of DCDHF-DA, was analyzed on the stage of a Nikon Diaphot inverted microscope equipped with a 100W Xenon lamp and a Nikon 20X, 0.4 N.A. objective.

The subject of data set [10] is cocultures of mouse cortical neurons and glia. Put plainly: NMDA-induced neuronal death (LDH efflux) in cortical cell cultures. The class given is cell-based. The following applies: for NMDA neurotoxicity (neuronal death 24 hr later): 300 μM NMDA for 10 min. As for the experimental part:
FIG. 2 is a graph plotting a dose-response effect of sulfasalazine against neuronal death 24 hr following a brief exposure to 300 μM NMDA. Cocultures of mouse cortical neurons and glia (DIV 12-14) were exposed to 300 μM NMDA for 10 min, alone or with inclusion of 10-1000 μM sulfasalazine. Neuronal death was analyzed by measuring LDH efflux into the bathing medium 24 hr later, mean ± S.E.M. (n−8−16 cultrues per condition), scaled to the mean LDH value corresponding to the near-complete neuronal death induced by 24 hr exposure to 500 μM NMDA (=100%). Asterisk indicates significant difference from relevant control (NMDA alone), at ρ<0.05 using ANOVA and Student-Neuman-Keuls' test.
FIG. 3 is a graph plotting neuroprotective effects of sulfasalazine against dose-dependent neurotoxicity by NMDA. Cortical cell cultures were exposed to 30-1000 μM NMDA for 10 min, alone or in the presence of 300 or 1000 μM sulfasalazine. Neuronal death was analyzed by measuring LDH efflux into the bathing medium 24 hr later, mean ± S.E.M. (n=8−16 cultures per condition). Asterisk indicates significant difference from relevant control (NMDA alone), at ρ<0.05 using ANOVA and Student-Neuman-Keuls' test.
as §1, §2

Consider `O=C(O)c1cc(/N=N/c2ccc(S(=O)(=O)Nc3ccccn3)cc2)ccc1O` [sulfasalazine], for which the serum concentrations result in [1] was “approximately 500 μM”. For the same molecule, the “neuronal death 24 hr following continuous exposure to Fe2+” value in data set [2] is “dose-dependently reduced”. The “Zn2+ neurotoxicity” value in data set [3] was “reduced Zn^2+ neurotoxicity in a dose-dependent manner”. Further, the “Zn2+ entry” value in data set [4] (300 μM Zn2+ for 30 min, 300 μM sulfasalazine) is “slightly but significantly reduced”. Also, the “doses preventing influx and accumulation of Zn2+” value in data set [4] (summary statement) is on record as 30-1,000 μM. Further, the “neuronal death 24 hr following continuous exposure to BSO” value in data set [5] is “dose-dependently reduced”. The entries for the “45Ca2+ influx after NMDA” value in data set [6] (300 μM sulfasalazine) and in data set [6] (1000 μM sulfasalazine) were “partially reduced” and “completely blocked”, respectively. Further, the “doses preventing influx and accumulation of Ca2+” value in data set [6] (summary statement) is recorded as 30-1,000 μM. Moreover, in data set [7] (OGD extended to 90 min), the “neuroprotective effects after prolonged deprivation of oxygen and glucose” value is listed as “decreased”. In addition, in data set [7] (OGD for 45-60 min), the “neuronal death following deprivation of oxygen and glucose” value is “markedly reduced”. Besides, the “NMDA-induced accumulation of [Ca2+]i” value in [8] is recorded as “markedly reduced”. The “production of ROS following exposure to Fe2+” value in data set [9] (50 μM Fe2+, 100 μM sulfasalazine) is “reduced production of ROS”. Moreover, in [9] (summary statement), the “doses scavenging reactive oxygen species” value was 3 to 100 µM. Besides, the “NMDA neurotoxicity (neuronal death 24 hr later)” value in data set [10] (1 mM sulfasalazine) is “completely blocked”; in data set [10] (100-300 μM sulfasalazine concurrent), “partially reduced”. Also, the “neuroprotective effects with increasing doses of NMDA” value in data set [10] (NMDA up to 1 mM for 10 min, 300 or 1000 μM sulfasalazine) is listed as “did not interfere with the neuroprotective effects”.

(Values after patent US6521640B1, “Method for interviewing neuronal death using sulfasalazine” (Neurotech Co., Ltd., priority 2000, dated 2003).)
